{
  "source": "patent US11396522B2",
  "about": "“Bis-acetal-based substrates for imaging exo-glycosidase activity” (ALECTOS THERAPEUTICS INC., priority 2017, dated 2022)",
  "key": {"GBA2": {"target": "T1, GBA2 (Homo sapiens, UniProt Q9HCG7)", "T1 sequence (Q9HCG7 1-927)": "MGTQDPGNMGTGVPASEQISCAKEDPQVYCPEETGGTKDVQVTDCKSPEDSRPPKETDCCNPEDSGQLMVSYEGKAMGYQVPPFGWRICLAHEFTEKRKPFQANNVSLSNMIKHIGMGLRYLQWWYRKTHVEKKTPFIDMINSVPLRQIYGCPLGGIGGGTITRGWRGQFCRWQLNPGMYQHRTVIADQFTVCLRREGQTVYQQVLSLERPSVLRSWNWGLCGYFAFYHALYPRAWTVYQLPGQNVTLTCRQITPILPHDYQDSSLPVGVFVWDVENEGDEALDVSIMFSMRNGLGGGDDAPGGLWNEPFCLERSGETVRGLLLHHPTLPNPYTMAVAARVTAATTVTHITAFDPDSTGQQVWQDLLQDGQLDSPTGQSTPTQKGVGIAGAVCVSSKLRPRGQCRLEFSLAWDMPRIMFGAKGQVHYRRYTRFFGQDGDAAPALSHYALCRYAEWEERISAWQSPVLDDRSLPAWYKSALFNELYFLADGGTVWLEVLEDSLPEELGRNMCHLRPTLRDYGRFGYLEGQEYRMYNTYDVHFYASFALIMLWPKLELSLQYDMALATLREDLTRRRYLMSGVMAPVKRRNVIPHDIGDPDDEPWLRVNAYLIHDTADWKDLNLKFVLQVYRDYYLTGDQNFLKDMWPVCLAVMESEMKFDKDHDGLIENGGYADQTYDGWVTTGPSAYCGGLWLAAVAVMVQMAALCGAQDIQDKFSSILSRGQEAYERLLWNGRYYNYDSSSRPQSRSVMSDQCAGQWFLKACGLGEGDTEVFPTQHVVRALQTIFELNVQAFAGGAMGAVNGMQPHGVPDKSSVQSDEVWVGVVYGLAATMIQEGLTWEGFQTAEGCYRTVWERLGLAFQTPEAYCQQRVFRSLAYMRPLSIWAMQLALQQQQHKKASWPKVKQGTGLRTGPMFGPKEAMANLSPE", "assay": "In vitro kinetic assay with GBA2", "assay_type": "biochemical", "details": "GBA enzymes at 50 nM"}, "GBA1": {"target": "T2, GBA1 (Homo sapiens, UniProt P04062)", "T2 sequence (P04062 40-536)": "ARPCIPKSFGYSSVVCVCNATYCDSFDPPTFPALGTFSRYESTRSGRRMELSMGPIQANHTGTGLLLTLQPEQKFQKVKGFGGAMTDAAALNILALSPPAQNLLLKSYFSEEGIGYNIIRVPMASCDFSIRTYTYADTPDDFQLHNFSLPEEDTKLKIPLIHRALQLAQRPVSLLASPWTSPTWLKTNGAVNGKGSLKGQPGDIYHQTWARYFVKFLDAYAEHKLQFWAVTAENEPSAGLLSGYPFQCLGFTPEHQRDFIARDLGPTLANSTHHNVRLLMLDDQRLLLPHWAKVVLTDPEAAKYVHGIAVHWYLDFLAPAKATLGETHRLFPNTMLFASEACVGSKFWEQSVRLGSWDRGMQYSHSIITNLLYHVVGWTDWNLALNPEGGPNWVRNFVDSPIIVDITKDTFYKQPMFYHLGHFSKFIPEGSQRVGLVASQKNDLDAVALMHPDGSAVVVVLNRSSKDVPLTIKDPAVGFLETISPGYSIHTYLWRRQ", "assay": "In vitro kinetic assay with GBA1", "assay_type": "biochemical", "design": "purchased R&D Systems", "details": "GBA enzymes at 50 nM", "procedure": "(§1) For some experiments, fluorescence kinetic assays were performed using a Varian Cary Eclipse Spectrophotometer set for 335/493 nm excitation/emission wavelengths. Slits were set at 10 nm and the detector was set on Medium voltage. Enzymatic reactions with human OGA were carried out in PBS at 37° C. and were started by addition of hOGA (WT, Full-length, expressed in E. coli. as previously described) in a total volume of 160 μL (Starna sub-micro Fluorometer cuvette). For measurements of rates using different concentrations of substrates, a hOGA concentration of 100 nM was used. For hOGA titration, 25 μM of Glyco-BABS were added to various concentration of hOGA. […] EDANS standard curve was established using endpoint fluorescence measurements of serial dilutions of EDANS in the relevant buffer using the same instrument parameters. Inner-Filter effect measurements were carried out in cuvette by measuring fluorescence of several concentrations of EDANS in presence of various concentrations of GlcNAc-BABS. Kinetics with Glc-BABS and GBA enzymes (GBA1 and GBA3 purchased from R&D Systems), kinetics with GALC (R&D systems) and Gal-BABS, pH stability, quenching efficiency, some inner-filter effect experiments and lysates experiments were carried out using a Molecular Devices SpectraMax i3× plate reader. […]"}, "GBA3": {"target": "T3, GBA3 (Homo sapiens, UniProt Q9H227)", "T3 construct": "purchased R&D Systems", "T3 sequence (Q9H227 1-469)": "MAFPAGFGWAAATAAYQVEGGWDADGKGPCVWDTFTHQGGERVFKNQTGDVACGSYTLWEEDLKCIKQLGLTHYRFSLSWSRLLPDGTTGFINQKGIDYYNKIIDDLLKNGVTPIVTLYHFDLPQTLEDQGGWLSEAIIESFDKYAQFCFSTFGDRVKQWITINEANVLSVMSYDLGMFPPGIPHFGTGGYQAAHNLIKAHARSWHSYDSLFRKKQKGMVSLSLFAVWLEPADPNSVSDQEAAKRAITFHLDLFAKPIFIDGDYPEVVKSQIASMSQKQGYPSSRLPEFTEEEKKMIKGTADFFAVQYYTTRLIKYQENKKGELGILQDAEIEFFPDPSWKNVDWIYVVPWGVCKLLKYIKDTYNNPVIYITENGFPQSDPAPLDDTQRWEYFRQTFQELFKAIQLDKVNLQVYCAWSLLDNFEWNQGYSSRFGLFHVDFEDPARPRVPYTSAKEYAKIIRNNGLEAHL", "assay": "In vitro kinetic assay with GBA3", "assay_type": "biochemical", "details": "GBA enzymes at 50 nM", "procedure": "as §1"}, "[1]": {"assay": "pH stability of Glyco-BABS", "assay_type": "physicochemical", "details": "5 μM, up to 72 h, pH 2 to 10"}},
  "data": [
    {"smiles": "CN(C)c1ccc(/N=N/c2ccc(C(=O)NCc3cn(CCOCCO[C@H](O[C@@H]4O[C@H](CO)[C@@H](O)[C@H](O)[C@H]4O)[C@@](C)(O)C(=O)NCCNc4cccc5c(S(=O)(=O)O)cccc45)nn3)cc2)cc1", "note": "[Compound 6, 5-((2-((2R,3R)-3-(2-(2-(4-((4-((E)-(4-(dimethylamino)phenyl)diazenyl)benzamido)methyl)-1H-1,2,3-triazol-1-yl)ethoxy)ethoxy)-2-hydroxy-2-methyl-3-(((2S,3R,4S,5S,6R)-3,4,5-trihydroxy-6-(hydroxymethyl)tetrahydro-2H-pyran-2-yl)oxy)propanamido)ethyl)amino)naphthalene-1-sulfonic Acid]", "values": [
      {"measurement": "turnover by GBA2", "setting": "GBA2", "result": "not turned over"},
      {"measurement": "turnover by GBA1", "setting": "GBA1", "result": "not turned over"},
      {"measurement": "turnover by GBA3", "setting": "GBA3", "result": "not turned over"},
      {"measurement": "pH stability (increase of fluorescence)", "setting": "[1]", "result": "no significant increase of fluorescence"}
    ]}
  ]
}
